Results on one molecule are retold here after patent US20240058265A1, “TREATMENT OF OCULAR DISEASES USING ENDOTHELIN RECEPTOR ANTAGONISTS” (Perfuse Therapeutics, Inc., priority 2021, published 2024).

The subject of the experiment is elevated IOP rat eye. The experiment is described as follows: Morrison's rat model of glaucoma (RGC counts, PERG). The class given is in vivo, Brown Norway rats. The conditions noted are these: topical eye drops 100 μg per dose, five days a week, four weeks. From the text: Adult male and female retired breeder Brown Norway rats (approximate age groups of 8 to 11 months) were obtained from Envigo (Indianapolis, IN). Baseline IOP measurements and pattern electroretinogram (PERG) amplitudes were collected prior to the surgery for elevation of IOP (to ensure that the IOP and PERG amplitudes were in the expected range of values). IOP was elevated in one eye (left eye) of the rats, while the corresponding right eyes served as contralateral controls. The Morrison method to elevate IOP in rats was carried out by injection of 50 μL of hypertonic saline through the episcleral veins to sclerose the trabecular meshwork. IOP was measured twice a week throughout the entire duration of the experiment. […] After detecting an elevation of IOP for two consecutive days, topical administration of eye drops ([…] (100 μg,) per dose of the tested compounds in the IOP elevated eye) was commenced and carried out for five days a week for a total of four weeks. In the 4th week of treatment, PERG analysis was carried out and rats were sacrificed by an overdose of pentobarbital (fatal-Plus). Aqueous humor was collected from the rat eyes, frozen and shipped for analysis. Retinal flat mounts were prepared, immunostained with the RGC marker, Brn3a antibody and surviving RG-Cs were counted in two eccentricities (central and peripheral).
For this study, the Morrison's model was used to induce ocular hypertension in adult male retired breeder Brown Norway rats as previously described by. Morrison et al., (Morrison J C, Moore C G, Deppmeier L M, Gold B G, Meshul C K, Johnson E C. A rat model of chronic pressure-induced optic nerve damage. Exp Eye Res. 1997;64(1):85-96).
The immunostained retinal flat mounts were obtained to measure the retinal ganglion cell (RGC) counts. To obtain immunostained retinal flat mounts, the animals were euthanized after the treatments and then their eyes were enucleated. The eye cups were fixed overnight at 4° C. in 4% paraformaldehyde (PFA) and retinal flat mounts were prepared for collecting images. The retinal ganglion cell (RGC) counting was conducted using the images of immunostained retinal flat mounts. The images were uploaded to ImageJ, a photo editor designed for biology research (Rasband, 1997-2018) and the labeled retinal ganglion cells were counted manually in two eccentricities (central and peripheral).
Pattern ERG (PERG) was used to assess the RGC function. […] Briefly, PERG signals were acquired from a DTL-plus electrode placed on the lower part of the corneal surface and the PERG waves were analyzed using the EMWIN software (LKC). The difference between the amplitude of the major positive (P1) and negative (N2) waves were calculated to decipher the PERG amplitude.

`Cc1onc(NS(=O)(=O)c2ccccc2-c2ccc(-c3ncco3)cc2CN(C)C(=O)CC(C)(C)C)c1C` [Edonentan, N-[[2′-[[(4,5-dimethyl-3-isoxazolyl)amino]sulfonyl]-4-(2-oxazolyl)[1,1′-biphenyl]-2-yl]methyl]-N,3,3-trimethylbutanamide]: the “RGC function (PERG)” value is recorded as “maintained RGC function” and the “RGC loss (RGC counts, retinal flat mounts)” value is reported as “prevented RGC loss”.
